Experimental data reported in PubChem BioAssay (NCI).
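Here, GI50 denotes the concentration required for 50% inhibition of growth. Definition used: TGI = concentration required for complete inhibition of growth.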

Assays:
Test in all cases: NCI anticancer screen, dose series, 384-well format
[1] = test system: K-562 leukemia
[2] = test system: NCI/ADR-RES ovarian
[3] = test system: SNB-19 CNS
[4] = test system: KM12 colon
[5] = test system: OVCAR-3 ovarian
[6] = test system: RPMI-8226 leukemia
[7] = test system: HOP-62 NSCLC
[8] = test system: EKVX NSCLC
[9] = test system: MDA-MB-468 breast
[10] = test system: MDA-MB-231 breast
[11] = test system: SK-MEL-28 melanoma
[12] = test system: SF-539 CNS
[13] = test system: A549 NSCLC
[14] = test system: SF-268 CNS
[15] = test system: UO-31 renal
[16] = test system: MOLT-4 leukemia
[17] = test system: OVCAR-4 ovarian
[18] = test system: TK-10 renal
[19] = test system: A498 renal
[20] = test system: IGROV1 ovarian
[21] = test system: MCF7 breast
[22] = test system: DU-145 prostate
[23] = test system: CCRF-CEM leukemia
[24] = test system: CAKI-1 renal
[25] = test system: NCI-H226 lung
[26] = test system: HL-60(TB) leukemia
[27] = test system: HCC-2998 colon
[28] = test system: U251 glioblastoma
[29] = test system: NCI-H460 NSCLC
[30] = test system: SK-MEL-5 melanoma
[31] = test system: SR leukemia
[32] = test system: LOX IMVI melanoma
[33] = test system: 786-0 renal
[34] = test system: HT29 colon
[35] = test system: UACC-62 melanoma
[36] = test system: BT-549 breast
[37] = test system: NCI-H23 lung
[38] = test system: SK-OV-3 ovarian
[39] = test system: HCT-116 colon
[40] = test system: SNB-75 CNS
[41] = test system: OVCAR-5 ovarian
[42] = test system: RXF 393 renal
[43] = test system: PC-3 prostate
[44] = test system: SK-MEL-2 melanoma
[45] = test system: SN12C renal
[46] = test system: HCT-15 colon
[47] = test system: ACHN renal
[48] = test system: HOP-92 NSCLC
[49] = test system: NCI-H522 lung
[50] = test system: HS 578T breast
[51] = test system: COLO 205 colon
[52] = test system: SF-295 CNS
[53] = test system: NCI-H322M lung
[54] = test system: MALME-3M melanoma
[55] = test system: MDA-MB-435 melanoma

O=C1NC(=O)[C@@H](c2cn3c4c(cccc24)CCC3)[C@@H]1c1c[nH]c2ccccc12
GI50 [1]: 21.5 nM
TGI [1]: 373 nM
GI50 [2]: 203 nM
TGI [2]: 787 nM
GI50 [3]: 347 nM
TGI [3]: 12000 nM
GI50 [4]: 28 nM
TGI [4]: 1990 nM
GI50 [5]: 21.9 nM
TGI [5]: 149 nM
GI50 [6]: 154 nM
TGI [6]: 308 nM
GI50 [7]: 252 nM
TGI [7]: 11800 nM
GI50 [8]: 340 nM
TGI [8]: 13900 nM
GI50 [9]: 53.3 nM
TGI [9]: 204 nM
GI50 [10]: 398 nM
TGI [10]: 15400 nM
GI50 [11]: 311 nM
TGI [11]: 16600 nM
GI50 [12]: 244 nM
TGI [12]: 1070 nM
GI50 [13]: 413 nM
TGI [13]: 14100 nM
GI50 [14]: 281 nM
TGI [14]: 2700 nM
GI50 [15]: 365 nM
TGI [15]: 16700 nM
GI50 [16]: 52 nM
TGI [16]: 199 nM
GI50 [17]: 2160 nM
TGI [17]: 20700 nM
GI50 [18]: 420 nM
TGI [18]: 15700 nM
GI50 [19]: 307 nM
TGI [19]: 8830 nM
GI50 [20]: 403 nM
TGI [20]: 12400 nM
GI50 [21]: 141 nM
TGI [21]: 11600 nM
GI50 [22]: 451 nM
TGI [22]: 2990 nM
GI50 [23]: 119 nM
TGI [23]: 246 nM
GI50 [24]: 71.2 nM
TGI [24]: 12000 nM
GI50 [25]: 400 nM
TGI [25]: 7390 nM
GI50 [26]: 124 nM
TGI [26]: 252 nM
TGI [27]: 1260 nM
GI50 [28]: 280 nM
TGI [28]: 1790 nM
GI50 [29]: 155 nM
TGI [29]: 630 nM
GI50 [30]: 115 nM
TGI [30]: 595 nM
TGI [31]: 14.9 nM
GI50 [32]: 453 nM
TGI [32]: 2100 nM
GI50 [33]: 332 nM
TGI [33]: 12400 nM
GI50 [34]: 180 nM
TGI [34]: 494 nM
GI50 [35]: 96.9 nM
TGI [35]: 525 nM
GI50 [36]: 154 nM
TGI [36]: 718 nM
GI50 [37]: 269 nM
TGI [37]: 6960 nM
GI50 [38]: 184 nM
TGI [38]: 3710 nM
GI50 [39]: 285 nM
TGI [39]: 3630 nM
GI50 [40]: 246 nM
TGI [40]: 10100 nM
GI50 [41]: 1620 nM
TGI [41]: 17300 nM
GI50 [42]: 26.8 nM
TGI [42]: 380 nM
GI50 [43]: 145 nM
TGI [43]: 8340 nM
GI50 [44]: 256 nM
TGI [44]: 497 nM
GI50 [45]: 401 nM
TGI [45]: 12700 nM
GI50 [46]: 40.6 nM
TGI [46]: 4940 nM
GI50 [47]: 409 nM
TGI [47]: 14500 nM
GI50 [48]: 410 nM
TGI [48]: 10700 nM
GI50 [49]: 13.2 nM
TGI [49]: 93.7 nM
GI50 [50]: 123 nM
TGI [50]: 295 nM
GI50 [51]: 281 nM
TGI [51]: 7770 nM
GI50 [52]: 246 nM
TGI [52]: 1230 nM
GI50 [53]: 558 nM
TGI [53]: 13800 nM
GI50 [54]: 260 nM
TGI [54]: 11500 nM
GI50 [55]: 24.9 nM
TGI [55]: 141 nM
